Here are results for 26 compounds from ChEMBL document CHEMBL5034004, “Discovery of M3 Antagonist-PDE4 Inhibitor Dual Pharmacology Molecules for the Treatment of Chronic Obstructive Pulmonary Disease” (J Med Chem, 2021).

The target in test [1] is 3',5'-cyclic-AMP phosphodiesterase 4B (Homo sapiens, UniProt Q07343). Nature of the test: Inhibition of human recombinant PDE4B2 assessed as […] in cAMP level incubated for 2 hrs by LANCE Ultra cAMP TR-FRET assay. (In general: cAMP levels reflect the balance of adenylyl cyclase and phosphodiesterase activity.)
Sequence of 3',5'-cyclic-AMP phosphodiesterase 4B (Q07343 whole entry): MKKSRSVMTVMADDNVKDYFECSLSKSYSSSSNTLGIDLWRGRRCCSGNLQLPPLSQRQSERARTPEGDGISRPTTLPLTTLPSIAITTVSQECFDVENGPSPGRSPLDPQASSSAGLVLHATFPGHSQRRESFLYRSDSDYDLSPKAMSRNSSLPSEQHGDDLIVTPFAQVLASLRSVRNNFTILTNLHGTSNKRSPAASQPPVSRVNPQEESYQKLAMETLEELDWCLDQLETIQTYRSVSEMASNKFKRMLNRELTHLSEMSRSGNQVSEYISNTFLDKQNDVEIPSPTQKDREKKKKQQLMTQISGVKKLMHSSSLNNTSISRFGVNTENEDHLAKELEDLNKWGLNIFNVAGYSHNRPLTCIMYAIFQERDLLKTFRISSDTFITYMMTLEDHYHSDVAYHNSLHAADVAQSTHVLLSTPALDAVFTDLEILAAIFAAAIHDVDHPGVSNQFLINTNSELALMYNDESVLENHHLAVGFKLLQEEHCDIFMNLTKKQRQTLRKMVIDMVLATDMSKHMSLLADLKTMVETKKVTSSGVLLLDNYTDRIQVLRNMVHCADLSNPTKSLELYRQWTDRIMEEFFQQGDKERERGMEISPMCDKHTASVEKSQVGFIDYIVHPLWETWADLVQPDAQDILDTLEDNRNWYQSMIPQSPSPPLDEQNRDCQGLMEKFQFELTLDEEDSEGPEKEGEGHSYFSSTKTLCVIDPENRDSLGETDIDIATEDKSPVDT
Test [2] concerns the target Muscarinic acetylcholine receptor M3 (Rattus norvegicus, UniProt P08483). Nature of the test: Antagonist activity at muscarinic M3 receptor in rat trachea assessed as inhibition of carbachol-induced contraction. Type of test: functional, tissue-based.
Test [3] is described as follows: Antiinflammatory activity in human PBMCs assessed as inhibition of LPS-induced TNF-alpha release measured after 18 hrs by ELISA. Type of test: functional, tissue-based, PBMC. The settings on record: for IC50: Homo sapiens, PBMC, 18 h; for pIC50: pbmc.
Test [4] addresses Muscarinic acetylcholine receptor M3 (Homo sapiens, UniProt P20309). Nature of the test: Displacement of [3H]-N-methyl Scopolamine Chloride from human M3 receptor membranes incubated for 2 hrs by scintillation counting analysis. Type of test: cell membranes, Cell membrane. In general terms: Loss of bound radioactivity is the signal in a displacement assay; it reports binding, not function.

Test [5] in a line: Antagonist activity at muscarinic M3 receptor in guinea pig trachea assessed as inhibition of carbachol-induced contraction. The class given is tissue-based, Cavia porcellus.

Sequence of Muscarinic acetylcholine receptor M3 (Rattus norvegicus, UniProt P08483) (P08483 whole entry): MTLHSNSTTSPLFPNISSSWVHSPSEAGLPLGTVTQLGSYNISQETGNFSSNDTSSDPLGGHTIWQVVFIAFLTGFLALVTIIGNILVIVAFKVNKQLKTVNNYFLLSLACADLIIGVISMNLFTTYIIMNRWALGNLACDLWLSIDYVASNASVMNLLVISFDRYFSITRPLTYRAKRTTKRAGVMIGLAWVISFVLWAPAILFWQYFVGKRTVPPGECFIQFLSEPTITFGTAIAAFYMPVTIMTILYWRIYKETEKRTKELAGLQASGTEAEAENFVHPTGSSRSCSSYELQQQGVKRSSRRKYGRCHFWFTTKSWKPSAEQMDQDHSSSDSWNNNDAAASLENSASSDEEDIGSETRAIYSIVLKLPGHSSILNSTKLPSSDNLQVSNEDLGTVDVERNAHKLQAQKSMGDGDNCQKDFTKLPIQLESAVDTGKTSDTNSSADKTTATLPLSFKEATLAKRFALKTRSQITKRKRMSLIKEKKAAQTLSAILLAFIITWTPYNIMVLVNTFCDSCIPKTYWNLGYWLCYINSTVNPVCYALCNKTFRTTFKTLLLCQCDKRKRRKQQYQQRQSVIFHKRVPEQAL
Sequence of Muscarinic acetylcholine receptor M3 (Homo sapiens, UniProt P20309) (P20309 whole entry): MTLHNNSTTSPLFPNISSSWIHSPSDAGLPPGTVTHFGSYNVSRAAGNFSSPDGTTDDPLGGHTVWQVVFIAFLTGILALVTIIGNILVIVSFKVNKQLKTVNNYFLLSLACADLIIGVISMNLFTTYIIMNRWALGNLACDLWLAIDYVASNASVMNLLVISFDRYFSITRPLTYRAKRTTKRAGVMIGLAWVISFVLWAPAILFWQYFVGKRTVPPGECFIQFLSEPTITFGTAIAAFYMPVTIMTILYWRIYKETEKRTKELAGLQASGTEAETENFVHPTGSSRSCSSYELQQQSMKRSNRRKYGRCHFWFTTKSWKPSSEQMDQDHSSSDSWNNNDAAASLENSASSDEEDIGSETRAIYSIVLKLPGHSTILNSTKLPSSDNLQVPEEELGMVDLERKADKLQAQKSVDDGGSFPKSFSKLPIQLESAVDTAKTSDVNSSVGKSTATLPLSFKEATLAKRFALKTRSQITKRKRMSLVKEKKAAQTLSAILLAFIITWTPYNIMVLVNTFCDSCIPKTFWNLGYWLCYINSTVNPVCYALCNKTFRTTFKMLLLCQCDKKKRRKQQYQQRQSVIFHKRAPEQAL

What is called IC50 is the concentration that inhibits the measured activity by half. For orientation: Ki means the dissociation constant of the complex between target and ligand, obtained from inhibition or displacement. Read a high Ki as lower affinity. Regarding `COc1ccc([C@H](Cc2c(Cl)c[n+]([O-])cc2Cl)OC(=O)c2ccc(CNC(C(=O)OCCN(C)C)c3ccccc3)s2)cc1OC` (stereo in doubt; 91j), the IC50 in test [1] was 1 nM; in test [2], 79.4 nM; in test [3], 3.16 nM. Moreover, in test [4], the inhibition constant (Ki) is 12.6 nM.

`COc1ccc([C@H](Cc2c(Cl)c[n+]([O-])cc2Cl)OC(=O)c2ccc(CNC(C(=O)OCCN(C)C)c3ccccc3)s2)cc1OC` (stereo in doubt; 92j): the values for the half-maximal inhibitory concentration (IC50) in test [1] and in test [2] were 0.631 nM and 12.6 nM, respectively. The compound also showed a Ki in test [4] of 0.398 nM.

The pIC50 is −log10 of the IC50, conventionally taken in molar units. For the compound `COc1ccc([C@H](Cc2c(Cl)c[n+]([O-])cc2Cl)OC(=O)c2ccc(CN(C(=O)O[C@H]3CN4CCC3CC4)c3nccs3)s2)cc1OC`, the negative-log IC50 (pIC50) in test [5] turned out to be 8.4. Moreover, the values for the IC50 in test [1] and in test [3] were 0.631 nM and 0.501 nM, respectively. The compound further had a Ki in test [4] of 0.794 nM.

As for `COc1ccc([C@H](Cc2c(Cl)c[n+]([O-])cc2Cl)OC(=O)c2ccc(CNC(C(=O)OC[C@H]3CCN3C)c3ccccc3)s2)cc1OC` (stereo in doubt; 92i), the IC50 in test [2] was 5.01 nM.

As to `COc1ccc([C@H](Cc2c(Cl)c[n+]([O-])cc2Cl)OC(=O)c2ccc(CN(C(=O)O[C@H]3CN4CCC3CC4)c3cccc(C(F)F)c3)s2)cc1OC`, in test [5], the pIC50 turned out to be 8.8. The IC50 is 0.316 nM in test [1] and 0.2 nM in test [3]. Moreover, the Ki in test [4] was 3.16 nM.

On to `COc1ccc([C@H](Cc2c(Cl)c[n+]([O-])cc2Cl)OC(=O)c2ccc(CNC(C(=O)OC[C@H]3CCN3C)c3ccccc3)s2)cc1OC` (stereo in doubt; 91i), for which, in test [2], the IC50 was 20 nM. In addition, the pIC50 in test [3] came to 8.1.

Consider `COc1ccc([C@H](Cc2c(Cl)c[n+]([O-])cc2Cl)OC(=O)c2ccc(CNC(C(=O)OC3C[C@H]4CC[C@H](C3)N4C)c3ccccc3)s2)cc1OC` (stereo in doubt; 92d), for which the pIC50 in test [1] amounted to 9. Also, the Ki in test [4] was 10 nM.

For `COc1ccc([C@H](Cc2c(Cl)c[n+]([O-])cc2Cl)OC(=O)c2cccc(CNC(C(=O)O[C@H]3CN4CCC3CC4)c3ccccc3)c2)cc1OC` (stereo in doubt; 90), the pIC50 in test [5] is listed as 9.1; in test [3], 8.6. Further, the IC50 in test [1] was 7.94 nM. The compound also had an inhibitory constant (Ki) in test [4] of 0.2 nM.

For the compound `COc1ccc([C@H](Cc2c(Cl)c[n+]([O-])cc2Cl)OC(=O)c2ccc(CN(C(=O)O[C@H]3CN4CCC3CC4)c3ccccc3)cc2F)cc1OC`, the pIC50 in test [5] came out at 8.6. The IC50 in test [1] is 2.51 nM; in test [3] it was 0.126 nM. The compound further had a Ki in test [4] of 0.158 nM.

On to `COc1ccc([C@H](Cc2c(Cl)c[n+]([O-])cc2Cl)OC(=O)c2ccc(CN(C(=O)O[C@H]3CN4CCC3CC4)c3cccc(F)c3)s2)cc1OC`, for which, in test [5], the pIC50 amounted to 8.1. Also, the IC50 was 1 nM in test [1] and 0.631 nM in test [3]. The compound further showed a Ki in test [4] of 0.2 nM.

On to `COc1ccc([C@H](Cc2c(Cl)c[n+]([O-])cc2Cl)OC(=O)c2ccc(CNC(C(=O)OC3CCN(C)CC3)c3ccccc3)s2)cc1OC` (stereo in doubt; 91e), for which the results for the IC50 in test [1], in test [2] and in test [3] were 1 nM, 20 nM and 1.58 nM, respectively. In test [4], the affinity corresponds to a Ki of 10 nM.

As to `COc1ccc([C@H](Cc2c(Cl)c[n+]([O-])cc2Cl)OC(=O)c2ccc(CNC(C(=O)O[C@H]3CN4CCC3CC4)c3ccccc3F)s2)cc1OC` (stereo in doubt; 91b), the pIC50 in test [5] was 8.6. The concentration for half-maximal inhibition (IC50) in test [1] is 0.631 nM; in test [3] it was 1 nM. Besides, the affinity in test [4], expressed as Ki, was 0.1 nM.

For the compound `COc1ccc([C@H](Cc2c(Cl)c[n+]([O-])cc2Cl)OC(=O)Cc2ccc(CN(C(=O)O[C@H]3CN4CCC3CC4)c3ccccc3)cc2)cc1OC`, the IC50 in test [1] is 10 nM. In test [4], this compound gave an inhibition constant Ki of 0.316 nM.

`COc1ccc([C@H](Cc2c(Cl)c[n+]([O-])cc2Cl)OC(=O)c2ccc(CNC(C(=O)OC[C@H]3CN4CCC3CC4)c3ccccc3)s2)cc1OC` (stereo in doubt; 92g): the IC50 in test [2] was 3.16 nM. Moreover, the pIC50 in test [3] amounted to 8.4.

As for `COc1ccc([C@H](Cc2c(Cl)c[n+]([O-])cc2Cl)OC(=O)c2ccc(CNC(C(=O)OC[C@H]3CN4CCC3CC4)c3ccccc3)s2)cc1OC` (stereo in doubt; 91g), the half-maximal inhibitory concentration (IC50) in test [2] was 20 nM; in test [3], 3.16 nM.

Take `COc1ccc([C@H](Cc2c(Cl)c[n+]([O-])cc2Cl)OC(=O)c2ccc(CNC(C(=O)O[C@@H]3CCN(C)C3)c3ccccc3)s2)cc1OC` (stereo in doubt; 91f): the values for the concentration for half-maximal inhibition (IC50) in test [1], in test [2] and in test [3] were 3.16 nM, 1 nM and 3.98 nM, respectively. For the same compound, affinity in test [4] was put at a Ki of 7.94 nM.

As to `COc1ccc([C@H](Cc2c(Cl)c[n+]([O-])cc2Cl)OC(=O)c2ccc(CN(C)C(C(=O)O[C@H]3CN4CCC3CC4)c3ccccc3)s2)cc1OC` (stereo in doubt; 91c), the IC50 in test [1] is 2 nM; in test [3], 3.16 nM. This compound also had a Ki in test [4] of 0.631 nM.

Turning to `COc1ccc([C@H](Cc2c(Cl)c[n+]([O-])cc2Cl)OC(=O)c2ccc(CN(C(=O)O[C@H]3CN4CCC3CC4)c3ccccc3)cc2)cc1OC`, the pIC50 in test [5] is recorded as 8.7. Besides, the IC50 in test [1] is 2 nM; in test [3] it was 2.51 nM. The compound also gave a Ki in test [4] of 0.158 nM.

For `COc1ccc([C@H](Cc2c(Cl)c[n+]([O-])cc2Cl)OC(=O)c2ccc(CN(C(=O)O[C@H]3CN4CCC3CC4)c3cccc(O)c3)s2)cc1OC`, in test [5], the pIC50 is on record as 9. Moreover, the values for the IC50 in test [1] and in test [3] were 0.794 nM and 0.398 nM, respectively. The compound also gave an inhibition constant Ki in test [4] of 0.316 nM.

On to `COc1ccc([C@H](Cc2c(Cl)c[n+]([O-])cc2Cl)OC(=O)c2ccc(CNC(C(=O)OCC3CCN(C)CC3)c3ccccc3)s2)cc1OC` (stereo in doubt; 92h), for which the IC50 in test [2] was 5.01 nM. Also, the pIC50 in test [3] was determined as 8.8.

Consider `COc1ccc([C@H](Cc2c(Cl)c[n+]([O-])cc2Cl)OC(=O)c2ccc(CNC(C(=O)OCC3CCN(C)CC3)c3ccccc3)s2)cc1OC` (stereo in doubt; 91h), for which, in test [3], the pIC50 is recorded as 8.4.

The term pKi denotes −log10 of the Ki, conventionally taken in molar units. In the case of `COc1ccc([C@H](Cc2c(Cl)c[n+]([O-])cc2Cl)OC(=O)c2ccc(CN(C)C(C(=O)O[C@H]3CN4CCC3CC4)c3ccccc3)s2)cc1OC` (stereo in doubt; 92c), in test [1], the IC50 was 3.16 nM. Besides, the pIC50 in test [3] was found to be 8.7. The pKi in test [4] amounted to 9.2.

For the compound `COc1ccc([C@H](Cc2c(Cl)c[n+]([O-])cc2Cl)OC(=O)c2cccc(CNC(C(=O)O[C@H]3CN4CCC3CC4)c3ccccc3)c2)cc1OC` (stereo in doubt; 89), the pIC50 in test [5] stood at 9. The IC50 in test [1] is 3.98 nM; in test [3] it was 1.26 nM. Besides, in test [4], the Ki was 0.158 nM.

`COc1ccc([C@H](Cc2c(Cl)c[n+]([O-])cc2Cl)OC(=O)c2ccc(CN(C(=O)O[C@H]3CN4CCC3CC4)c3cccnc3)s2)cc1OC`: the Ki in test [4] was 7.94 nM.

Regarding `COc1ccc([C@H](Cc2c(Cl)c[n+]([O-])cc2Cl)OC(=O)c2ccc(F)c(CN(C(=O)O[C@H]3CN4CCC3CC4)c3ccccc3)c2)cc1OC`, the pIC50 in test [5] came to 9. Further, the results for the IC50 in test [1] and in test [3] were 7.94 nM and 2 nM, respectively. This compound also showed a Ki in test [4] of 0.2 nM.

With `COc1ccc([C@H](Cc2c(Cl)c[n+]([O-])cc2Cl)OC(=O)c2ccc(CNC(C(=O)O[C@H]3CN4CCC3CC4)c3ccccc3F)s2)cc1OC` (stereo in doubt; 92b), the pIC50 in test [5] is 8.5; in test [1], 9.2; in test [3], 8.9. The Ki in test [4] is 0.158 nM.
